Laboratory results published in patent US4456618A, “Naphthenic and heterocyclic retinoic acid analogues” (SRI International, priority 1982, dated 1984).

Assays:
Ornithine Decarboxylase = assay: Ornithine decarboxylase (ODC) assay: inhibition of TPA-induced ODC induction in mouse skin; type: in vivo, mouse (female Charles River CD-1); settings: topical, 1 hour before TPA (17 nmol)
Experimental: (§1) The ODC assay measures a compound's ability to prevent the induction of ODC. The tracheal organ culture assay measures a compound's ability to reverse keratinization.
The ODC assay is carried out as follows. Female Charles River CD-1 mice from Charles River Breeding Laboratories, Wilmington, Mass., are used (age 7 to 9 weeks). The dorsal hair of the mice is shaved 1 to 2 days before testing, and only mice showing no hair regrowth are used. A single dose of 12-O-tetradecanoylphorbol-13-acetate (TPA) (10.5 μg, 17 nmol) in 0.2 mL of acetone is applied topically to the back of each mouse. The test compound, at one of three dose levels (1.7, 17 and 170 nmol), dissolved in 0.2 mL of acetone is applied 1 hour before the TPA treatment to the test groups; the control group is treated with acetone alone. The mice are killed by cervical dislocation five hours after TPA treatment. Determinations are done in triplicate.
The epidermis is obtained from the sacrificed animals. To obtain sufficient material, the dorsal skins from 2 to 3 mice in each treatment group are pooled. The depilatory agent Nudit® (Helena Rubinstein, New York) is applied to the shaved area of the skin; after 5 minutes, it is washed off thoroughly with cold tap water. Then the skin is excised and plunged immediately into ice-cold water; it is then placed in a 55° C. water bath for 30 seconds and reimmersed in ice-cold water for at lease another 30 seconds. The skin is placed epidermis side up on a cold plate, and the epidermis is scraped off with a razor blade. The pooled epidermal sheets are homogenized (Polytron PT-10 homogenizer) at 0° to 4° C. for 15-20 seconds in 50 mM sodium phosphate and 0.1 mM ethylenediaminetetraacetic acid (EDTA), at a volume of 1 mL/skin.
The supernatant fraction remaining after centrifugation of the homogenate at 10,000×g for 30 seconds at 0° C. is used for the enzyme assay. Enzyme activity is determined using the microassay for ODC as described by Verma and Boutwell to measure the release of ^14 CO2 from DL-[1-^14 C]-ornithine (58 mCi/mmol) after incubation with the 10,000×g supernatant. The incubations are carried out by decanting, with a Pasteur pipette, 100 μL of the supernatant containing 100 to 120 μg of protein into two or three 15-mL Corex tubes in a shaking water bath at 37° C. The assay mixture in the tubes consists of 50 μL of 100 mM sodium phosphate buffer (pH 7.2), 10 μL of 4 mM pyridoxal phosphate, 40 μL of 25 mM dithiothreitol, and 1 μL of 0.1 M EDTA. The center wells in the tubes are filled with 200 μL of a 2:1 solution (v/v) of ethanolamine:2-methoxyethanol. The reaction is started by adding 50 μL of substrate (0.5 μCi of DL-[1-^14 C]-ornithine in 2 mM cold ornithine) at 1-minute intervals by injection to each of the stoppered tubes. Incubations are routinely carried out at 37° C. for 30 to 60 minutes. The reaction is stopped by addition of 0.5 ml of 2 M citric acid, and incubation is continued for an additional hour without heating to ensure complete absorption of ^14 CO2.
Radioactivity is measured using a toluene-based scintillant (4 g of PPO and 50 mg of POPOP/L of toluene) in a Beckman LS-250 liquid scintillation counter. Enzyme activity is determined in triplicate and expressed as nanomoles of CO2 released in 30 minutes per milligram of protein. Enzyme activity is linear for the protein concentration used. The protein concentrations of the epidermal extracts are determined by the Lowry procedure, using bovine serum albumin as the standard.

[1] = test system: Hamster Tracheal Organ Culture; assay: Reversal of keratinization in hamster tracheal organ culture; type: cell-based
Experimental: as §1
The tracheal organ culture assay is carried out as follows. Tracheas are taken from hamsters that are in very early stages of vitamin A deficiency and placed in organ culture. At the time of culture, the animals are still gaining weight; the tracheal epithelium is generally low columnar or cuboidal, with only occasional patches of squamous metaplasia. Each trachea is opened from the larynx to the carina along the membranous dorsal wall and cultured in a serum-free medium (CMRL-1066; with crystalline bovine insulin, 0.1 μg/ml; hydrocortisone hemisuccinate, 0.1 μg/ml; glutamine, 2 mM; penicillin, 100 units/ml; and streptomycin,100 μg/ml, added). Cultures are gassed with 50% oxygen, 45% nitrogen, and 5% CO2. The culture dishes are rocked at 35.5-36.0 degrees to allow the tracheas contact with both gas and medium. All tracheas are grown in medium containing no retinoid for the first 3 days. At the end of 3 days, some tracheas are harvested; almost all of these tracheas have significant squamous metaplasia, and approximately 60% have keratinized lesions. The remaining tracheas are then divided into different groups which are treated with either: (1) retinoid dissolved in dimethylsulfoxide (final concentration of DMSO in culture medium is never greater than 0.1%) or (2) an equivalent amount of DMSO alone. Culture medium is changed three times a week, and all of the remaining tracheas are harvested at the end of 10 days in culture. Tracheas are fixed in 10% buffered formalin and embedded in paraffin. Cross sections of five micrometers are made through the mid-portion, stained with hematoxylin and eosin, and then scored with a microscope for the presence of keratin and keratohyaline granules, both of which are found in approximately 90% of control cultures that received no retinoid for the entire 10 day culture period.

| SMILES | Inhibition of Induction of Ornithine Decarboxylase by 12-O-Tetradecanoylphorbol-13-acetate in Mouse Skin, % Inhibition of Control (Ornithine Decarboxylase; Dose 1.7 nmol) [%] | Inhibition of Induction of Ornithine Decarboxylase by 12-O-Tetradecanoylphorbol-13-acetate in Mouse Skin, % Inhibition of Control (Ornithine Decarboxylase; Dose 17 nmol) [%] | Reversal of Keratinization, Active/Total Cultures ([1]; Conc 10^-8 M) | Reversal of Keratinization, Active/Total Cultures (%) ([1]; Conc 10^-8 M) | Reversal of Keratinization, Active/Total Cultures ([1]; Conc 10^-9 M) | Reversal of Keratinization, Active/Total Cultures (%) ([1]; Conc 10^-9 M) | Reversal of Keratinization, Active/Total Cultures ([1]; Conc 10^-10 M) | Reversal of Keratinization, Active/Total Cultures (%) ([1]; Conc 10^-10 M) |
| --- | --- | --- | --- | --- | --- | --- | --- | --- |
| CC1=C(/C=C/C(C)=C/c2ccc(C(=O)O)s2)C(C)(C)CCC1 [Example 8, (E)-1-(5-carboxythien-2-yl)-2-methyl-4-(2,6,6-trimethyl-1-cyclohexen-1-yl)-1,3-butadiene] | 42 | 67 | 15/15 | 100 | 14/15 | 93 | 7/15 | 47 |
| CC1=C(/C=C/c2ccc3cc(C=O)ccc3c2)C(C)(C)CCC1 [Example 1, (E)-6-[2-(2,6,6-trimethyl-1-cyclohexen-1-yl)ethenyl]-2-naphthaldehyde] | 0 | 45 | 15/16 | 94 | 7/14 | 50 | 4/14 | 28 |
| CC1=C(/C=C/c2ccc3cc(C(=O)O)ccc3c2)C(C)(C)CCC1 [Example 3, 6-[2-(2,6,6-trimethyl-1-cyclohexen-1-yl)ethenyl]-2-naphthoicacid] | 30 | 48 | 7/7 | 100 | 7/7 | 100 | 3/7 | 43 |
| CC1=C(/C=C/C(C)=C/c2ccc(C(=O)O)o2)C(C)(C)CCC1 [Example 5, (E)-1-(5-carboxy-2-furanyl)-2-methyl-4-(2,6,6-trimethyl-1-cyclohexen-1-yl)-1,3-butadiene] | 7 | 5 | 3/6 | 50 | 3/7 | 43 | 3/7 | 43 |
| CCOC(=O)c1ccc(/C=C(C)/C=C/C2=C(C)CCCC2(C)C)o1 [Example 4, (E)-1-(5-Carbethoxy-2-furanyl)-2-methyl-4-(2,6,6-trimethyl-1-cyclohexen-1-yl)-1,3-butadiene] | 9 | 9 | 2/7 | 29 | 2/7 | 29 | 2/6 | 33 |
| CCOC(=O)c1ccc(/C=C(C)/C=C/C2=C(C)CCCC2(C)C)s1 [Example 6, (E)-1-(5-Carbethoxythien-2-yl)-2-methyl-4-(2,6,6-trimethyl-1-cyclohexen-1-yl)-1,3-butadiene] | 67 | 77 | 13/13 | 100 | 10/14 | 71 | 6/14 | 43 |
